Entries after “also recorded” stand apart in the source; their conditions may differ. Where two headings read alike, the source gives them in different places. Square brackets hold non-standard residues; d marks the D form. Ends that are not written are not given here.
Key:
[1] = system: dissociated cerebral cortical cultures (neurons); format: cell-based, rat; settings: 5 days
mice = assay: fetal alcohol syndrome (FAS) model in pregnant mice; settings: for fetal demise rate: pretreatment 30 minutes prior to alcohol on E8, 20 μg (each), injection, assessed E18, vs alcohol group
[2] = system: choline acetyl transferase activity; settings: ApoE-deficient mice with reduced choline acetyl transferase activity; cited from earlier work
AF64A-treated rats = assay: AF64A cholinotoxicity in adult rats, Morris water maze; format: in vivo; settings: for Morris water maze, summation of the two daily tests, vs AF64A / Morris water maze, summation of the two daily tests: 10 microgram per rat per day under the tongue
Text: FIGS. 14A and B illustrate the effect of oral administration of D-NAPVSIPQ+D-SALLRSIPA on learning and memory in rats treated with the cholinotoxin AF-64A. Short-term memory processes were examined by performance in the Morris water maze, measuring the time required to find the hidden platform in the second of two daily trials. The platform location and the starting point in which the animal was placed in the water were held constant within each pair of daily trials, but both locations were changed every day. For the first test, both the platform and the animal were situated in a new location with regard to the pool (with the pool being immobile). The experiment was performed as follows: the animal was positioned on the platform for 0.5 minute, then placed in the water. […] After 0.5 minute on the platform, the animal was placed back in the water (in the previous position) for an additional second test (FIG. 14B) and search for the hidden platform (retained in the previous position). The time required to reach the platform in the second trial was recorded, indicative of short-term (working) memory. All measurements were performed using the computerized video-assisted HVS water maze system (HVS Image Ltd. Hampton, UK). Animals were tested for four days to eliminate random memory defective animals. The designated n is the number of animals tested. Each point is the mean+the standard error.
Rats (male Wistar, 300-350 g) were subjected to two daily tests in a water maze, including a hidden platform (Morris, J. Neurosci. Methods 11:47-60 (1984) and Gordon et al., Neurosci. Lett. 199:1-4 (1995); Gozes et al., J. Neurobiol. 33:329-342 (1997)). Every day for the first test, both the platform and the animal were situated in a new location with regard to the pool (with the pool being immobile). The experiment was performed as follows: the animal was positioned on the platform for 0.5 minutes then placed in the water. The time required to reach the platform (indicative of learning and intact reference memory) was measured (first test). After 0.5 minute on the platform, the animal was placed back in the water (in the previous position) for an additional second test and search for the hidden platform (retained in the previous position). The time required to reach the platform in the second trial was recorded, indicative of short-term (working) memory. All measurements were performed using the computerized video-assisted HVS water maze system (HVS Image Ltd. Hampton, UK). Animals were tested for four days to eliminate random memory defective animals. The best performers were injected i.c.v. at a rate of 0.21 μl/min. with the cholinotoxin ethylcholine aziridium (AF64A, 3 nmolI2 μl/side), control animals received an injection of saline (Gozes et al, Proc. Natl. Acad. Sci. USA 93:427-432 (1996)).
Animals were allowed to recover for one week, followed by daily exposure to three micrograms of D-SAL+three micrograms of D-NAP, in 20 microliter saline, applied orally on the tongue. After a week of oral peptide application, the animals were subjected to two daily tests in the water maze (as above). During the test-period, animals were also given an oral administration of peptide or vehicle (carrier) an hour before the daily test.
FIG. 14C illustrates the effect of oral administration of D-SALLRSIPA alone on learning and memory in rats treated with the cholinotoxin AF-64A. Rats were treated with the cholinotoxin AF-64A and D-SALLRSIPA as described in Gozes et al., J. Pharmacol. Exp. Therap. 293: 1091-1098 (2000), except that D-SALLRSIPA was delivered to AF64A-treated rats was as follows: 10 microgram D-SALLRSIPA (D-SAL) per rat (250-300 g) per day in 50 microliter saline under the tongue, using a micropipette. Peptides were applied once daily for three days, a week after the AF64A lesion. After a 2-day cessation, peptides were applied once daily for another 5 days and tested from day three on. […]

[3] = single peptide, 1 μM tetrodotoxin, neuronal cell counts

Row | Substance | survival-promoting activity (preventing neuronal cell death associated with electrical blockade with TTX) [1, 3] | fetal demise rate (mice) | cholinergic function [2] | also measured
1 | Asn-Ala-Pro-Val-Ser-Ile-Pro-Gln [D-NAP] | very similar, with each exhibiting a complex dose response with two apparent maxima; also recorded: virtually identical in neuronal survival activity in vitro | significantly reduced the fetal demise rate; also recorded: prevents fetal demises | – | –
2 | Asn-Ala-Pro-Val-Ser-Ile-Pro-Gln [L-NAP, reference compound] | very similar, with each exhibiting a complex dose response with two apparent maxima; also recorded: virtually identical in neuronal survival activity in vitro | – | significantly increased cholinergic function to control levels | –
3 | D-NA{L-P}VSIPQ: NAPVSIPQ with all amino acids in the D-form, except the third proline residue in the L-form | – | – | – | survival-promoting activity (preventing neuronal cell death associated with electrical blockade with TTX) [1]: retained survival-promoting activity and was effective in cell culture in preventing neuronal cell death
4 | SALLRSIPA [L-SAL] | – | – | less effective | –
5 | SALLRSIPA [reference compound] | identical in both potency and efficacy; also recorded: virtually identical in neuronal survival activity in vitro | – | – | –
6 | Ser-Ala-Leu-Leu-Arg-Ser-Ile-Pro-Ala [D-SAL] ([dS][dA][dL][dL][dR][dS][dI][dP][dA]) | identical in both potency and efficacy; also recorded: virtually identical in neuronal survival activity in vitro | significantly reduced the fetal demise rate; also recorded: prevents fetal demises | – | learning and memory, overall conclusion (AF64A-treated rats; D-SALLRSIPA alone, oral, AF64A-treated rats): effective on its own; Morris water maze, summation of the two daily tests, vs AF64A (AF64A-treated rats; Day 1): P<0.04 D-SALLRSIPA-AF64A vs. AF64A; Morris water maze, summation of the two daily tests (AF64A-treated rats; Day 2): not significantly different from either AF64A animals or control; Morris water maze, summation of the two daily tests (AF64A-treated rats; Day 3): No difference; Morris water maze, summation of the two daily tests (AF64A-treated rats; Day 4): No difference; Morris water maze, summation of the two daily tests, vs AF64A (AF64A-treated rats; Day 5, t-test): P<0.04 D-SALLRSIPA-AF64A vs. AF64A; fetal death (mice; oral by gavage 30 minutes prior to alcohol, 40 μg, assessed on E18): prevent fetal death
